Experimental data published in article PMC6934184, “Selective DNA-PKcs inhibition extends the therapeutic index of localized radiotherapy and chemotherapy” (The Journal of Clinical Investigation, 2019).

Target: T1, ROCK1 (Homo sapiens, UniProt Q13464)
T1 construct: purchased Thermo Fisher Scientific (Life Technologies) SelectScreen
Assay: SelectScreen Z'LYTE
Assay type: biochemical
In short: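 Percent values come from Thermo SelectScreen profiling of NU5455, combining activity and binding assays. CSF1R was run in Z'LYTE format at Km app ATP, and CAMK1 in Adapta format with ATP listed at 10.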

T1 sequence (Q13464 whole entry): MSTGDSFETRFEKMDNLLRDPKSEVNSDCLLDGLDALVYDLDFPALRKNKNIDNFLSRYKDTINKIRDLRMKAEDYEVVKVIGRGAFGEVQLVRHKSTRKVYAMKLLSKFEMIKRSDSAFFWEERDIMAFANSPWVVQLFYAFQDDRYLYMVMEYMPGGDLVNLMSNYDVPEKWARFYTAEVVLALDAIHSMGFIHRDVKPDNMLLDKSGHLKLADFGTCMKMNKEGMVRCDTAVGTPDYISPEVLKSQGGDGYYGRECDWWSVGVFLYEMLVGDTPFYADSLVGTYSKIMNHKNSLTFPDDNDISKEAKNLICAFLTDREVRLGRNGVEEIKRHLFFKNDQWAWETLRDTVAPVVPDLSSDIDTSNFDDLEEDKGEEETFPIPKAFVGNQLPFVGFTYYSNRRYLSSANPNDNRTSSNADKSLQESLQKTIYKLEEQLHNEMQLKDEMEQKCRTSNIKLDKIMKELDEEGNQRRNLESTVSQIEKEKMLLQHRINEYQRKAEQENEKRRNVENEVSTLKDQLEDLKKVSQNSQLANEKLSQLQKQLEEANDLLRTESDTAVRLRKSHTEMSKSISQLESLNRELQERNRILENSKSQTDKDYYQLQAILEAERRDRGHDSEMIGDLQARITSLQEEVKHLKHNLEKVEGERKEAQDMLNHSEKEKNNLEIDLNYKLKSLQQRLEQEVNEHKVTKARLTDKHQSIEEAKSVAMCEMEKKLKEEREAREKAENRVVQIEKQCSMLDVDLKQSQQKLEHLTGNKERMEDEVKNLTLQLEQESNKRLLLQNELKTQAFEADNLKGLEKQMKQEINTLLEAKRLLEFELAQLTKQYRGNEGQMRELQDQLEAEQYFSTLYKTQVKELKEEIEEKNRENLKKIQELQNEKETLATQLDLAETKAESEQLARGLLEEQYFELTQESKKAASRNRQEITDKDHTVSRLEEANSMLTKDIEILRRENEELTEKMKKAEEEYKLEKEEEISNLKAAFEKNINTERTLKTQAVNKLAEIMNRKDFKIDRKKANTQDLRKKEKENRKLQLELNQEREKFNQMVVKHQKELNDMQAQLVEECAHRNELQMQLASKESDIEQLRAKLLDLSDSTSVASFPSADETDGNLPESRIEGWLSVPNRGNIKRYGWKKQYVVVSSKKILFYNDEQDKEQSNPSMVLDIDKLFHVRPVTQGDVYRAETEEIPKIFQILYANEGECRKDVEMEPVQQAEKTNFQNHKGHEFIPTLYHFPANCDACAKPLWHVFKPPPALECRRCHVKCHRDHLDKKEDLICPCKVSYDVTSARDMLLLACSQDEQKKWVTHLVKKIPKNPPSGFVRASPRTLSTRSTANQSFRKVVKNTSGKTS

CN(C(=O)CN1CCOCC1)c1ccc2sc3c(-c4cccc5c(=O)cc(N6CC7CCC(C6)O7)oc45)cccc3c2c1 [NU5455]
inhibition at 1 µM: -9.5%
